{"source": "the supplement of paper PMC10307832", "assay_in_all_cases": "relative viability (nuclei count vs DMSO), 5 days (fraction); higher = more cells survive", "key": {"[1]": {"tested_on": "NCI-H1793", "summary_of_the_method": "(§1)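 Relative viability was taken as the ratio of nuclei in treated wells to nuclei in vehicle wells. Lung cancer cell lines in 1536-well plates received compounds by pin tool one day after seeding, either one drug alone or a fixed anchor-drug dose plus five library-drug doses (not always all listed) in √10 steps. Nuclei were counted on 4× images after 5 days of treatment, and values are medians of duplicate plates.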"}, "[2]": {"tested_on": "HCC-366", "summary_of_the_method": "as §1"}, "[3]": {"tested_on": "NCI-H441", "summary_of_the_method": "as §1"}, "[4]": {"tested_on": "NCI-H1651", "summary_of_the_method": "as §1"}, "[5]": {"tested_on": "LOU-NH91", "summary_of_the_method": "as §1"}, "[6]": {"tested_on": "NCI-H522", "summary_of_the_method": "as §1"}, "[7]": {"tested_on": "LXF-289", "summary_of_the_method": "as §1"}, "[8]": {"tested_on": "NCI-H2347", "summary_of_the_method": "as §1"}, "[9]": {"tested_on": "HCC-15", "summary_of_the_method": "as §1"}, "[10]": {"tested_on": "NCI-H2085", "summary_of_the_method": "as §1"}, "[11]": {"tested_on": "H3255", "summary_of_the_method": "as §1"}, "[12]": {"tested_on": "NCI-H1915", "summary_of_the_method": "as §1"}, "[13]": {"tested_on": "LC-2-ad", "summary_of_the_method": "as §1"}, "[14]": {"tested_on": "NCI-H838", "summary_of_the_method": "as §1"}, "[15]": {"tested_on": "SK-MES-1", "summary_of_the_method": "as §1"}, "[16]": {"tested_on": "HARA", "summary_of_the_method": "as §1"}, "[17]": {"tested_on": "NCI-H661", "summary_of_the_method": "as §1"}, "[18]": {"tested_on": "BEN", "summary_of_the_method": "as §1"}, "[19]": {"tested_on": "NCI-H647", "summary_of_the_method": "as §1"}, "[20]": {"tested_on": "NCI-H322M", "summary_of_the_method": "as §1"}, "[21]": {"tested_on": "NCI-H2170", "summary_of_the_method": "as §1"}, "[22]": {"tested_on": "UMC-11", "summary_of_the_method": "as §1"}, "[23]": {"tested_on": "NCI-H650", "summary_of_the_method": "as §1"}, "[24]": {"tested_on": "NCI-H1395", "summary_of_the_method": "as §1"}}}
{"smiles": "Nc1cccc2c1CN(C1CCC(=O)NC1=O)C2=O", "note": "(configuration not stated) [Lenalidomide] + Nc1ncn([C@H]2C[C@H](O)[C@@H](CO)O2)c(=O)n1 [Decitabine] (partner 2 µM)", "values": [{"measurement": "relative viability", "setting": "[1]; first compound 0.253 µM", "result": 0.464}, {"measurement": "relative viability", "setting": "[1]; first compound 2.53 µM", "result": 0.535}, {"measurement": "relative viability", "setting": "[1]; first compound 8 µM", "result": 0.44}, {"measurement": "relative viability", "setting": "[2]; first compound 0.253 µM", "result": 0.337}, {"measurement": "relative viability", "setting": "[2]; first compound 0.8 µM", "result": 0.377}, {"measurement": "relative viability", "setting": "[2]; first compound 2.53 µM", "result": 0.366}, {"measurement": "relative viability", "setting": "[2]; first compound 8 µM", "result": 0.354}, {"measurement": "relative viability", "setting": "[3]; first compound 0.253 µM", "result": 0.233}, {"measurement": "relative viability", "setting": "[3]; first compound 0.8 µM", "result": 0.229}, {"measurement": "relative viability", "setting": "[3]; first compound 2.53 µM", "result": 0.264}, {"measurement": "relative viability", "setting": "[3]; first compound 8 µM", "result": 0.262}, {"measurement": "relative viability", "setting": "[4]; first compound 0.253 µM", "result": 0.631}, {"measurement": "relative viability", "setting": "[4]; first compound 0.8 µM", "result": 0.5}, {"measurement": "relative viability", "setting": "[4]; first compound 2.53 µM", "result": 0.645}, {"measurement": "relative viability", "setting": "[4]; first compound 8 µM", "result": 0.582}, {"measurement": "relative viability", "setting": "[5]; first compound 0.253 µM", "result": 0.815}, {"measurement": "relative viability", "setting": "[5]; first compound 0.8 µM", "result": 0.826}, {"measurement": "relative viability", "setting": "[5]; first compound 2.53 µM", "result": 0.831}, {"measurement": "relative viability", "setting": "[5]; first compound 8 µM", "result": 0.765}, {"measurement": "relative viability", "setting": "[6]; first compound 0.253 µM", "result": 0.759}, {"measurement": "relative viability", "setting": "[6]; first compound 0.8 µM", "result": 0.76}, {"measurement": "relative viability", "setting": "[6]; first compound 2.53 µM", "result": 0.694}, {"measurement": "relative viability", "setting": "[6]; first compound 8 µM", "result": 0.626}, {"measurement": "relative viability", "setting": "[7]; first compound 0.253 µM", "result": 0.388}, {"measurement": "relative viability", "setting": "[7]; first compound 0.8 µM", "result": 0.351}, {"measurement": "relative viability", "setting": "[7]; first compound 2.53 µM", "result": 0.393}, {"measurement": "relative viability", "setting": "[7]; first compound 8 µM", "result": 0.335}, {"measurement": "relative viability", "setting": "[8]; first compound 0.253 µM", "result": 0.616}, {"measurement": "relative viability", "setting": "[8]; first compound 0.8 µM", "result": 0.617}, {"measurement": "relative viability", "setting": "[8]; first compound 2.53 µM", "result": 0.624}, {"measurement": "relative viability", "setting": "[8]; first compound 8 µM", "result": 0.566}, {"measurement": "relative viability", "setting": "[9]; first compound 0.253 µM", "result": 0.766}, {"measurement": "relative viability", "setting": "[9]; first compound 2.53 µM", "result": 0.763}, {"measurement": "relative viability", "setting": "[9]; first compound 8 µM", "result": 0.594}, {"measurement": "relative viability", "setting": "[10]; first compound 0.253 µM", "result": 0.546}, {"measurement": "relative viability", "setting": "[10]; first compound 0.8 µM", "result": 0.542}, {"measurement": "relative viability", "setting": "[10]; first compound 2.53 µM", "result": 0.529}, {"measurement": "relative viability", "setting": "[10]; first compound 8 µM", "result": 0.566}, {"measurement": "relative viability", "setting": "[11]; first compound 0.253 µM", "result": 0.592}, {"measurement": "relative viability", "setting": "[11]; first compound 0.8 µM", "result": 0.556}, {"measurement": "relative viability", "setting": "[11]; first compound 2.53 µM", "result": 0.563}, {"measurement": "relative viability", "setting": "[11]; first compound 8 µM", "result": 0.421}, {"measurement": "relative viability", "setting": "[12]; first compound 0.253 µM", "result": 0.247}, {"measurement": "relative viability", "setting": "[12]; first compound 0.8 µM", "result": 0.253}, {"measurement": "relative viability", "setting": "[12]; first compound 2.53 µM", "result": 0.274}, {"measurement": "relative viability", "setting": "[12]; first compound 8 µM", "result": 0.241}, {"measurement": "relative viability", "setting": "[13]; first compound 0.253 µM", "result": 0.685}, {"measurement": "relative viability", "setting": "[13]; first compound 0.8 µM", "result": 0.81}, {"measurement": "relative viability", "setting": "[13]; first compound 2.53 µM", "result": 0.744}, {"measurement": "relative viability", "setting": "[13]; first compound 8 µM", "result": 0.79}, {"measurement": "relative viability", "setting": "[14]; first compound 0.253 µM", "result": 0.483}, {"measurement": "relative viability", "setting": "[14]; first compound 0.8 µM", "result": 0.404}, {"measurement": "relative viability", "setting": "[14]; first compound 2.53 µM", "result": 0.527}, {"measurement": "relative viability", "setting": "[14]; first compound 8 µM", "result": 0.491}, {"measurement": "relative viability", "setting": "[15]; first compound 0.253 µM", "result": 0.362}, {"measurement": "relative viability", "setting": "[15]; first compound 0.8 µM", "result": 0.342}, {"measurement": "relative viability", "setting": "[15]; first compound 2.53 µM", "result": 0.428}, {"measurement": "relative viability", "setting": "[15]; first compound 8 µM", "result": 0.394}, {"measurement": "relative viability", "setting": "[16]; first compound 0.253 µM", "result": 0.597}, {"measurement": "relative viability", "setting": "[16]; first compound 2.53 µM", "result": 0.538}, {"measurement": "relative viability", "setting": "[16]; first compound 8 µM", "result": 0.561}, {"measurement": "relative viability", "setting": "[17]; first compound 0.253 µM", "result": 0.568}, {"measurement": "relative viability", "setting": "[17]; first compound 0.8 µM", "result": 0.548}, {"measurement": "relative viability", "setting": "[17]; first compound 2.53 µM", "result": 0.621}, {"measurement": "relative viability", "setting": "[17]; first compound 8 µM", "result": 0.568}, {"measurement": "relative viability", "setting": "[18]; first compound 0.253 µM", "result": 0.728}, {"measurement": "relative viability", "setting": "[18]; first compound 0.8 µM", "result": 0.635}, {"measurement": "relative viability", "setting": "[18]; first compound 2.53 µM", "result": 0.766}, {"measurement": "relative viability", "setting": "[18]; first compound 8 µM", "result": 0.62}, {"measurement": "relative viability", "setting": "[19]; first compound 0.253 µM", "result": 0.426}, {"measurement": "relative viability", "setting": "[19]; first compound 0.8 µM", "result": 0.318}, {"measurement": "relative viability", "setting": "[19]; first compound 2.53 µM", "result": 0.428}, {"measurement": "relative viability", "setting": "[19]; first compound 8 µM", "result": 0.446}, {"measurement": "relative viability", "setting": "[20]; first compound 0.253 µM", "result": 0.702}, {"measurement": "relative viability", "setting": "[20]; first compound 0.8 µM", "result": 0.78}, {"measurement": "relative viability", "setting": "[20]; first compound 2.53 µM", "result": 0.725}, {"measurement": "relative viability", "setting": "[20]; first compound 8 µM", "result": 0.688}, {"measurement": "relative viability", "setting": "[21]; first compound 0.253 µM", "result": 0.49}, {"measurement": "relative viability", "setting": "[21]; first compound 0.8 µM", "result": 0.429}, {"measurement": "relative viability", "setting": "[21]; first compound 2.53 µM", "result": 0.469}, {"measurement": "relative viability", "setting": "[21]; first compound 8 µM", "result": 0.471}, {"measurement": "relative viability", "setting": "[22]; first compound 0.253 µM", "result": 0.46}, {"measurement": "relative viability", "setting": "[22]; first compound 0.8 µM", "result": 0.688}, {"measurement": "relative viability", "setting": "[22]; first compound 2.53 µM", "result": 0.725}, {"measurement": "relative viability", "setting": "[22]; first compound 8 µM", "result": 0.621}, {"measurement": "relative viability", "setting": "[23]; first compound 0.253 µM", "result": 0.312}, {"measurement": "relative viability", "setting": "[23]; first compound 0.8 µM", "result": 0.349}, {"measurement": "relative viability", "setting": "[23]; first compound 2.53 µM", "result": 0.351}, {"measurement": "relative viability", "setting": "[23]; first compound 8 µM", "result": 0.332}, {"measurement": "relative viability", "setting": "[24]; first compound 0.253 µM", "result": 0.763}, {"measurement": "relative viability", "setting": "[24]; first compound 2.53 µM", "result": 0.743}, {"measurement": "relative viability", "setting": "[24]; first compound 8 µM", "result": 0.703}]}
